What follows are compounds tested on velvetleaf (assay: Test Example 5: herbicidal effect by foliage application, plastic box (Table 20, symbol M)). Conditions: foliage application, AAH 320 g/ha, evaluated three weeks after application.
Format: in vivo, velvetleaf (Abutilon theophrasti)
Summary of the method: (§1)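 Sow seeds spot-wise in sterilized diluvial soil; cover with ~1.5 cm soil. Grow 14 days in greenhouse, 25° C. to 30° C. Spray foliage with emulsion diluted to predetermined amount. Rate effect after 3 weeks.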
In the case of `CCCC(=O)Oc1c(C)nn(C)c(=O)c1-c1c(-c2ccc(SC(C)C)cc2)sc2ccc(F)cc12` [2-253], the “M: velvetleaf, herbicidal effect (criteria 0-5)” value is reported as 5 (Herbicidal rate of 90% or more (almost completely withered)).
For `CCCC(=O)Oc1c(C)nn(C)c(=O)c1-c1c(-c2ccc(SC3CC3)cc2)sc2ccc(F)cc12` [2-255], the “M: velvetleaf, herbicidal effect (criteria 0-5)” value was 5 (Herbicidal rate of 90% or more (almost completely withered)).

These compounds were tested on oval-leafed pondweed (assay: Test Example 1: herbicidal activity, application before weed generation under submerged conditions (Table 16, symbol C)). Conditions: 320 g/ha applied herbicide.
Format: in vivo, oval-leafed pondweed (Monochoria vaginalis)
Summary of the method: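 Submerged Wagner pots (alluvial soil, 4 cm water) sown with weed seeds and planted with 2.5-leaf rice seedlings; emulsifiable concentrate diluted in water applied to water surface on sowing day. Held in greenhouse at 25-30 °C; injury scored 0-5 by herbicidal rate after three weeks.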
`CCCC(=O)Oc1c(C)nn(C)c(=O)c1-c1c(-c2ccc(SC(C)C)cc2)sc2ccc(F)cc12` [2-253] was tested, and the “Herbicidal effect on C: oval-leafed pondweed (grade 0-5)” value was 0 (Herbicidal rate of 5% or less (almost no effect)).
`CCCC(=O)Oc1c(C)nn(C)c(=O)c1-c1c(-c2ccc(SC3CC3)cc2)sc2ccc(F)cc12` [2-255] was tested, and the “Herbicidal effect on C: oval-leafed pondweed (grade 0-5)” value was 3 (Herbicidal rate of 40% or more and less than 70%).

Each compound was assayed on lambsquarters (assay: Test Example 4: herbicidal effect by soil treatment (Table 19, symbol O)). Conditions: amount of applied herbicide 320 g/ha.
Format: in vivo, lambsquarters (Chenopodium album)
Summary of the method: (§2)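 Applied as a water-diluted emulsion, the compound was sprayed onto soil covering newly sown seeds. Evaluation came three weeks after application, in a greenhouse held at 25° C. to 30° C.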
With `CCCC(=O)Oc1c(C)nn(C)c(=O)c1-c1c(-c2ccc(SC(C)C)cc2)sc2ccc(F)cc12` [2-253] the “herbicidal effect on O: lambsquarters” value was 4 (Herbicidal rate of 70% or more and less than 90%).
For `CCCC(=O)Oc1c(C)nn(C)c(=O)c1-c1c(-c2ccc(SC3CC3)cc2)sc2ccc(F)cc12` [2-255], the “herbicidal effect on O: lambsquarters” value was 3 (Herbicidal rate of 40% or more and less than 70%).

What follows are compounds tested on blackgrass (assay: Test Example 4: herbicidal effect by soil treatment (Table 19, symbol J)). Conditions: amount of applied herbicide 320 g/ha.
Format: in vivo, blackgrass (Alopecurus myosuroides)
Summary of the method: as §2
For `CCCC(=O)Oc1c(C)nn(C)c(=O)c1-c1c(-c2ccc(SC(C)C)cc2)sc2ccc(F)cc12` [2-253], the “herbicidal effect on J: blackgrass” value was 0 (Herbicidal rate of 5% or less (almost no effect)).
For `CCCC(=O)Oc1c(C)nn(C)c(=O)c1-c1c(-c2ccc(SC3CC3)cc2)sc2ccc(F)cc12` [2-255], the “herbicidal effect on J: blackgrass” value was 1 (Herbicidal rate of 5% or more and less than 20%).

These compounds were tested on chickweed (assay: Test Example 4: herbicidal effect by soil treatment (Table 19, symbol P)). Conditions: amount of applied herbicide 320 g/ha.
Format: in vivo, common chickweed (Stellaria media)
Summary of the method: as §2
For `CCCC(=O)Oc1c(C)nn(C)c(=O)c1-c1c(-c2ccc(SC(C)C)cc2)sc2ccc(F)cc12` [2-253], the “herbicidal effect on P: chickweed” value was 3 (Herbicidal rate of 40% or more and less than 70%).
For `CCCC(=O)Oc1c(C)nn(C)c(=O)c1-c1c(-c2ccc(SC3CC3)cc2)sc2ccc(F)cc12` [2-255], the “herbicidal effect on P: chickweed” value was 4 (Herbicidal rate of 70% or more and less than 90%).

The compounds below were run on velvetleaf (assay: Test Example 4: herbicidal effect by soil treatment (Table 19, symbol M)). Conditions: amount of applied herbicide 320 g/ha.
Format: in vivo, velvetleaf (Abutilon theophrasti)
Summary of the method: as §2
`CCCC(=O)Oc1c(C)nn(C)c(=O)c1-c1c(-c2ccc(SC(C)C)cc2)sc2ccc(F)cc12` [2-253] was tested, and the “herbicidal effect on M: velvetleaf” value was 1 (Herbicidal rate of 5% or more and less than 20%).
With `CCCC(=O)Oc1c(C)nn(C)c(=O)c1-c1c(-c2ccc(SC3CC3)cc2)sc2ccc(F)cc12` [2-255] the “herbicidal effect on M: velvetleaf” value was 3 (Herbicidal rate of 40% or more and less than 70%).

What follows are compounds tested on Japanese bulrush (assay: Test Example 2: herbicidal activity, application during weed generation under submerged conditions (Table 17, symbol B)). Conditions: AAH 320 g/ha; application during weed generation, submerged conditions.
Format: in vivo, Japanese bulrush (Schoenoplectus juncoides)
Summary of the method: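 In this pot test, flooded alluvial soil (water depth 4 cm) holds all three species sown as a mixture. Once seedlings have one to two leaves, the compound's emulsion, thinned with water to the intended dose, is poured on the water; grading follows after three weeks on the earlier criteria.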
In the case of `CCCC(=O)Oc1c(C)nn(C)c(=O)c1-c1c(-c2ccc(SC(C)C)cc2)sc2ccc(F)cc12` [2-253], the “herbicidal effect rating, B: Japanese bulrush” value is reported as 3 (Herbicidal rate of 40% or more and less than 70%).
`CCCC(=O)Oc1c(C)nn(C)c(=O)c1-c1c(-c2ccc(SC3CC3)cc2)sc2ccc(F)cc12` [2-255] was tested, and the “herbicidal effect rating, B: Japanese bulrush” value was 3 (Herbicidal rate of 40% or more and less than 70%).

The compounds below were run on green foxtail (assay: Test Example 4: herbicidal effect by soil treatment (Table 19, symbol G)). Conditions: amount of applied herbicide 320 g/ha.
Format: in vivo, green foxtail (Setaria viridis)
Summary of the method: as §2
In the case of `CCCC(=O)Oc1c(C)nn(C)c(=O)c1-c1c(-c2ccc(SC(C)C)cc2)sc2ccc(F)cc12` [2-253], the “herbicidal effect on G: green foxtail” value is reported as 0 (Herbicidal rate of 5% or less (almost no effect)).
In the case of `CCCC(=O)Oc1c(C)nn(C)c(=O)c1-c1c(-c2ccc(SC3CC3)cc2)sc2ccc(F)cc12` [2-255], the “herbicidal effect on G: green foxtail” value is reported as 1 (Herbicidal rate of 5% or more and less than 20%).

What follows are compounds tested on southern crabgrass (assay: Test Example 5: herbicidal effect by foliage application, plastic box (Table 20, symbol F)). Conditions: foliage application, AAH 320 g/ha, evaluated three weeks after application.
Format: in vivo, southern crabgrass (Digitaria ciliaris)
Summary of the method: as §1
For `CCCC(=O)Oc1c(C)nn(C)c(=O)c1-c1c(-c2ccc(SC(C)C)cc2)sc2ccc(F)cc12` [2-253], the “F: southern crabgrass, herbicidal effect (criteria 0-5)” value was 4 (Herbicidal rate of 70% or more and less than 90%).
With `CCCC(=O)Oc1c(C)nn(C)c(=O)c1-c1c(-c2ccc(SC3CC3)cc2)sc2ccc(F)cc12` [2-255] the “F: southern crabgrass, herbicidal effect (criteria 0-5)” value was 5 (Herbicidal rate of 90% or more (almost completely withered)).

The compounds below were run on barnyard grass (assay: Test Example 4: herbicidal effect by soil treatment (Table 19, symbol H)). Conditions: amount of applied herbicide 320 g/ha.
Format: in vivo, barnyard grass (Echinochloa crus-galli)
Summary of the method: as §2
In the case of `CCCC(=O)Oc1c(C)nn(C)c(=O)c1-c1c(-c2ccc(SC(C)C)cc2)sc2ccc(F)cc12` [2-253], the “herbicidal effect on H: barnyard grass” value is reported as 1 (Herbicidal rate of 5% or more and less than 20%).
In the case of `CCCC(=O)Oc1c(C)nn(C)c(=O)c1-c1c(-c2ccc(SC3CC3)cc2)sc2ccc(F)cc12` [2-255], the “herbicidal effect on H: barnyard grass” value is reported as 0 (Herbicidal rate of 5% or less (almost no effect)).

These compounds were tested on persian speedwell (assay: Test Example 4: herbicidal effect by soil treatment (Table 19, symbol R)). Conditions: amount of applied herbicide 320 g/ha.
Format: in vivo, Persian speedwell (Veronica persica)
Summary of the method: as §2
`CCCC(=O)Oc1c(C)nn(C)c(=O)c1-c1c(-c2ccc(SC(C)C)cc2)sc2ccc(F)cc12` [2-253] was tested, and the “herbicidal effect on R: persian speedwell” value was 2 (Herbicidal rate of 20% or more and less than 40%).
For `CCCC(=O)Oc1c(C)nn(C)c(=O)c1-c1c(-c2ccc(SC3CC3)cc2)sc2ccc(F)cc12` [2-255], the “herbicidal effect on R: persian speedwell” value was 5 (Herbicidal rate of 90% or more (almost completely withered)).

Each compound was assayed on chickweed (assay: Test Example 5: herbicidal effect by foliage application, plastic box (Table 20, symbol P)). Conditions: foliage application, AAH 320 g/ha, evaluated three weeks after application.
Format: in vivo, common chickweed (Stellaria media)
Summary of the method: as §1
In the case of `CCCC(=O)Oc1c(C)nn(C)c(=O)c1-c1c(-c2ccc(SC(C)C)cc2)sc2ccc(F)cc12` [2-253], the “P: chickweed, herbicidal effect (criteria 0-5)” value is reported as 5 (Herbicidal rate of 90% or more (almost completely withered)).
With `CCCC(=O)Oc1c(C)nn(C)c(=O)c1-c1c(-c2ccc(SC3CC3)cc2)sc2ccc(F)cc12` [2-255] the “P: chickweed, herbicidal effect (criteria 0-5)” value was 5 (Herbicidal rate of 90% or more (almost completely withered)).

These compounds were tested on lambsquarters (assay: Test Example 5: herbicidal effect by foliage application, plastic box (Table 20, symbol O)). Conditions: foliage application, AAH 320 g/ha, evaluated three weeks after application.
Format: in vivo, lambsquarters (Chenopodium album)
Summary of the method: as §1
`CCCC(=O)Oc1c(C)nn(C)c(=O)c1-c1c(-c2ccc(SC(C)C)cc2)sc2ccc(F)cc12` [2-253] was tested, and the “O: lambsquarters, herbicidal effect (criteria 0-5)” value was 4 (Herbicidal rate of 70% or more and less than 90%).
With `CCCC(=O)Oc1c(C)nn(C)c(=O)c1-c1c(-c2ccc(SC3CC3)cc2)sc2ccc(F)cc12` [2-255] the “O: lambsquarters, herbicidal effect (criteria 0-5)” value was 4 (Herbicidal rate of 70% or more and less than 90%).

The compounds below were run on persian speedwell (assay: Test Example 5: herbicidal effect by foliage application, plastic box (Table 20, symbol R)). Conditions: foliage application, AAH 320 g/ha, evaluated three weeks after application.
Format: in vivo, Persian speedwell (Veronica persica)
Summary of the method: as §1
With `CCCC(=O)Oc1c(C)nn(C)c(=O)c1-c1c(-c2ccc(SC(C)C)cc2)sc2ccc(F)cc12` [2-253] the “R: persian speedwell, herbicidal effect (criteria 0-5)” value was 5 (Herbicidal rate of 90% or more (almost completely withered)).
For `CCCC(=O)Oc1c(C)nn(C)c(=O)c1-c1c(-c2ccc(SC3CC3)cc2)sc2ccc(F)cc12` [2-255], the “R: persian speedwell, herbicidal effect (criteria 0-5)” value was 5 (Herbicidal rate of 90% or more (almost completely withered)).

Each compound was assayed on windgrass (assay: Test Example 5: herbicidal effect by foliage application, plastic box (Table 20, symbol L)). Conditions: foliage application, AAH 320 g/ha, evaluated three weeks after application.
Format: in vivo, windgrass (Apera spica-venti)
Summary of the method: as §1
`CCCC(=O)Oc1c(C)nn(C)c(=O)c1-c1c(-c2ccc(SC(C)C)cc2)sc2ccc(F)cc12` [2-253] was tested, and the “L: windgrass, herbicidal effect (criteria 0-5)” value was 3 (Herbicidal rate of 40% or more and less than 70%).
In the case of `CCCC(=O)Oc1c(C)nn(C)c(=O)c1-c1c(-c2ccc(SC3CC3)cc2)sc2ccc(F)cc12` [2-255], the “L: windgrass, herbicidal effect (criteria 0-5)” value is reported as 5 (Herbicidal rate of 90% or more (almost completely withered)).

What follows are compounds tested on wild oat (assay: Test Example 4: herbicidal effect by soil treatment (Table 19, symbol I)). Conditions: amount of applied herbicide 320 g/ha.
Format: in vivo, wild oat (Avena fatua)
Summary of the method: as §2
For `CCCC(=O)Oc1c(C)nn(C)c(=O)c1-c1c(-c2ccc(SC(C)C)cc2)sc2ccc(F)cc12` [2-253], the “herbicidal effect on I: wild oat” value was 0 (Herbicidal rate of 5% or less (almost no effect)).
`CCCC(=O)Oc1c(C)nn(C)c(=O)c1-c1c(-c2ccc(SC3CC3)cc2)sc2ccc(F)cc12` [2-255] was tested, and the “herbicidal effect on I: wild oat” value was 0 (Herbicidal rate of 5% or less (almost no effect)).

The compounds below were run on southern crabgrass (assay: Test Example 4: herbicidal effect by soil treatment (Table 19, symbol F)). Conditions: amount of applied herbicide 320 g/ha.
Format: in vivo, southern crabgrass (Digitaria ciliaris)
Summary of the method: as §2
For `CCCC(=O)Oc1c(C)nn(C)c(=O)c1-c1c(-c2ccc(SC(C)C)cc2)sc2ccc(F)cc12` [2-253], the “herbicidal effect on F: southern crabgrass” value was 0 (Herbicidal rate of 5% or less (almost no effect)).
For `CCCC(=O)Oc1c(C)nn(C)c(=O)c1-c1c(-c2ccc(SC3CC3)cc2)sc2ccc(F)cc12` [2-255], the “herbicidal effect on F: southern crabgrass” value was 0 (Herbicidal rate of 5% or less (almost no effect)).
